System: AMO-1 xenografts
Test: AMO-1 xenograft efficacy (tumor volume, body weight)
Type: in vivo, mouse
Method: All animal studies were conducted in accordance with the guidelines approved by the Institutional Animal Care and Use Committees of AbbVie. The research protocol was approved by In Vivo Pharmacology at AbbVie prior to study initiation but was not publicly registered or disclosed. Female C.B-17 SCID-beige mice (AMO-1, OPM-2, NCI-H929, and OCI-AML2 xenografts) and female NSG mice (MV4-11-Red.Fluc systemic) were purchased from Charles River Laboratories (Wilmington, MA). Animals were housed in a light cycle-controlled room with HEPA filtration at 22 °C. Animals had nesting and climbing cage topper as the primary environmental enrichment. Animals were inoculated subcutaneously in the right flank with 5 × 10^6 (AMO-1, OPM-2, NCI-H929, and OCI-AML2) or intravenous (IV) with 5 × 10^6 (MV4-11-Red.Fluc). The inoculation volume (0.2 mL) comprised a 50:50 mixture of cells in growth media and Matrigel (BD Biosciences) for subcutaneous injections and 100% phosphate-buffered saline for IV administration. All cell lines used in this publication were authenticated using IDEXX for STR profiling as well as their IMPACT and human IMPACT panels for pathogen screening. Electronic calipers were used to measure the length and width of each tumor 2 to 3 times per week. Tumor volume was estimated by applying the following equation: volume = length × width^2/2. All groups remained blinded during measurements and dosing; only veterinary staff were aware of group identity. When tumors reached approximately 200 mm^3, mice were randomized by match and distributed into treatment and control groups. All xenograft trials were conducted using 5 to 10 mice per group, and all mice were ear tagged and monitored individually throughout the studies. […] Tumor burden in the systemic MV4-11-Red.Fluc experiment was measured using an IVIS® spectrum from PerkinElmer by taking the total photon flux of the entire dorsal side of an individual mouse. […] A background control mouse that was tumor naive but received D-Luciferin was placed in the upper left corner of each image. The total flux from this animal was subtracted from the total flux of each animal present in the image.
For in vivo studies, maximal tumor growth inhibition (TGI) was calculated as the greatest treatment response using the following equation: Maximal TGI = (1 − mean tumor volume of the treated group/mean tumor volume of the vehicle control group) × 100. The tumor growth delay (TGD) percentage was determined as the percentage increase of the median time period for the treatment group to reach an arbitrary tumor volume of 1000 mm^3 relative to the vehicle control group. […] A power analysis was conducted using historical data to determine the number of animals required to yield significance of 0.05 at a 30% difference. […] Data from experiments in vivo were analyzed using the student’s t-test for TGI values and the Mann–Whitney U test for TGD using Excel and GraphPad Prism. Fisher’s exact test was used to probe significance of differences in response frequency.

SMILES	Results: toxicity following iv injection (SCID-beige mice bearing AMO-1 (DSMZ) flank xenografts, IV, Q7Dx2, 6.25-25 mg/kg, 5% DMSO, 10% cremophor EL, 85% D5W)	tolerability (mice, 25 mg/kg on a Q7D × 2 schedule)
Cc1c(Cl)c2c(Cl)c(C)c1-c1c(-c3ccc(F)cc3)sc3ncnc(c13)O[C@@H](C(=O)O)Cc1cc(ccc1OCc1ccnc(-c3ccc(OC[C@H]4COCCO4)cc3)n1)OC[C@@H](CN1CCN(C)CC1)O2 [Compound A-1747745]	A-1747745 and A-1746463 showed lethal toxicity due to drug precipitate folowing iv injection.	
Cc1c(Cl)c2c(Cl)c(C)c1-c1c(-c3ccc(F)cc3)sc3ncnc(c13)O[C@@H](C(=O)O)Cc1cc(ccc1OCc1ccnc(-c3ccc(OC[C@H]4COCCO4)cc3)n1)OC[C@@H](CN1CCN(C)CC1)O2 [ABBV-467]		not well-tolerated
